Assay results as given in US10119122B2, “Differentiation and expansion of endothelial cells from pluripotent stem cells and the in vitro formation of vasculature like structures” (Academisch Ziekenhuis Leiden, priority 2013, dated 2018).

Tested on: control iPSC-derived ECs co-cultured with control iPSC-derived pericytes/mesenchymal cells
Assay: 2D endothelial-pericyte co-culture sprouting assay, control ECs
Assay type: cell-based, human
Settings: for sprout formation / number of endothelial sprouts: SB431542 (10 μM in FIG. 20 legend); for total area covered by endothelial sprouts: SB431542
Procedure: The endothelial capillary-like network formation assay was carried out as previously described but with major modifications (Evensen et al., 2013). These included using both ECs and pericytes derived from human iPSC lines. This is described in more detail elsewhere (Orlova et al., manuscript in preparation). ECs were labelled with the general cytoplasmic labeling dye (PKH-26). For the sprouting assay, 12,000 ECs derived from both control and diseased lines were plated with 50,000 control iPSC-derived pericytes/well on 0.1% gelatin coated 96-well plates in EGM-2 (Lonza, CC-3162). Next day and on the day 4 of the assay, medium was replaced with new EGM-2 media containing tested compounds as indicated in the figure legends. Endothelial-pericyte co-culture was terminated on day 7 of the assay each well immunofluorescently stained for quantification, as follows: co-cultures were fixed with the 4% paraformaldehyde (PFA), permeabilized with the 0.1% TX-100 and blocked with the normal goat serum (Dako). Endothelial sprouts were visualized with the mouse anti-CD31 (Dako, 1:200). In some experiment with the mouse blocking antibodies, rabbit anti-CD31 (Scbt, 1:200) was used instead. Pericytes were visualized with antibodies against SM22 (Sigma, 1:200). The endothelial network was imaged with the BD Pathway 855 system using the 4× or 10× objective and 2×2 (or 3×3) Montage mode. Total area covered by the endothelial sprouts was quantified with the protocol developed within cell image analysis software CellProfiller (Broad Institute). High magnification images were acquired with the SP5 confocal microscope, using 10× and 40× objectives.
A two-dimensional co-culture system was first established in vitro consisting of control iPSC-derived ECs cultured with the control iPSC-derived mesenchymal cells (FIG. 10A). The protocol was optimized and adapted to the BD Pathway 855 imaging system, based on the protocol initially described for the co-culture of HUVECs and vascular SMCs (vSMCs) (Evensen et al., 2013). On day 7 of the co-culture, iPSC-derived EC had organized and formed spouts on the top mesenchymal cells, as evidenced by immunofluorescent staining with the EC-specific CD31 and SMC-specific SM22 markers (FIG. 10B).
Endothelial cell-pericyte co-culture was performed as described previously (Evensen et al., 2013) but using conditions optimized for iPSC-derived ECs and pericytes as described (Orlova et al., manuscript in preparation). In brief, 12,000 and 50,000 iPSC-derived ECs and pericytes were plated, respectively, in each well of a 96-well plate. Next day the co-cultures were refreshed with the specific treatment conditions indicated. The co-culture was fixed on day 7, and EC sprouts stained with anti-CD31 antibody (1:200, Dako) (as described in Orlova et al., manuscript in preparation). Pericytes were visualized with the anti-SM22 antibody (1:200, Abcam). The BD Pathway 855 system was used for automatic image acquisition, with the 4× objective and 2×2 (or in some cases 3×3) montage mode. CellProfiller (Broad Institute) custom pipeline was used for the image quantification.

[1] = day 7, listed as ALK5 inhibitor

NC(=O)c1ccc(-c2nc(-c3ccc4c(c3)OCO4)c(-c3ccccn3)[nH]2)cc1 [SB431542, reference compound]
SM22 fluorescence intensity in endothelial-pericyte co-culture (ALK5 inhibitor, day 7, confocal imaging and quantification): increase in SM22 fluorescence intensity
endothelial cell proliferation (Ki67+ ECs) (SB431542 10 μM, day 7 co-culture): Increased endothelial cell proliferation
sprout formation / number of endothelial sprouts (day 7): enhancement of sprout formation
sprout formation / number of endothelial sprouts [1]: significant increase in number of endothelial sprouts
total area covered by endothelial sprouts (day 7): increase in the total area covered by endothelial sprouts
total area covered by endothelial sprouts [1]: significant increase
